The values below come from patent US11147802B2, “Substituted oxadiazole chemical compound and composition containing said chemical compound and use thereof” (Shenzhen TargetRx, Inc., priority 2016, dated 2021).

Data set [1] can be described thus: Metabolic stability in human liver microsomes. The note with it: pH 7.4, 1 μM compound, 0.5 mg/mL protein, 37° C.; for half-life at 1 μM: read-out: Human liver microsomes t1/2. The data set is classed as in vitro ADME. The method, then:
(§1) Metabolic Stability Evaluation
(§2) Experiments in microsomes: Human liver microsomes: 0.5 mg/mL, Xenotech; Rat liver microsomes: 0.5 mg/mL, Xenotech; Coenzyme (NADPH/NADH): 1 mM, Sigma Life Science; Magnesium chloride: 5 mM, 100 mM phosphate buffer (pH 7.4).
(§3) Preparation of stock solution: Powder of the example compound was accurately weighed and dissolved in DMSO to 5 mM.
(§4) Preparation of phosphate buffer (100 mM, pH7.4): A pre-formulated 0.5M potassium dihydrogen phosphate (150 mL) was mixed with 0.5M dibasic potassium phosphate (700 mL). The pH of the mixture was adjusted to 7.4 with 0.5M dibasic potassium phosphate solution. The mixture was diluted 5-fold with ultrapure water before use, and magnesium chloride was added to obtain a phosphate buffer (100 mM) containing 100 mM potassium phosphate, 3.3 mM magnesium chloride, pH 7.4.
(§5) A NADPH regeneration system solution (containing 6.5 mM NADP, 16.5 mM G-6-P, 3 U/mL G-6-PD, 3.3 mM magnesium chloride) was prepared and placed on wet ice prior to use.
(§6) Preparation of stop solution: acetonitrile solution containing 50 ng/mL propranolol hydrochloride and 200 ng/mL tolbutamide (internal standard). 25057.5 μL of phosphate buffer (pH 7.4) was taken into a 50 mL centrifuge tube, to which 812.5 μL human liver microsomes were added, and mixed to obtain a liver microsome dilution solution with a protein concentration of 0.625 mg/mL. 25057.5 μL of phosphate buffer (pH 7.4) was taken into a 50 mL centrifuge tube, to which 812.5 μL SD rat liver microsomes were added, and mixed to obtain a liver microsome dilution solution with a protein concentration of 0.625 mg/mL.
(§7) Incubation of the samples: The stock solution of the respective compound was respectively diluted to 0.25 mM with an aqueous solution containing 70% acetonitrile, and used as a working solution, ready for use. 398 μL of the dilution solution of human liver microsomes or rat liver microsome were added to a 96-well incubation plate (N=2), respectively, and 2 μL of 0.25 mM working solution was added and mixed.
(§8) Metabolic stability assay: 300 μL of pre-chilled stop solution was added to each well of a 96-well deep well plate and placed on ice as a stop plate. The 96 well incubation plate and NADPH regeneration system were placed in a 37° C. water bath box, shaken at 100 rpm and pre-incubated for 5 min. 80 μL of incubation solution was taken out from each well of the incubation plate and added to the stop plate, mixed, and replenished with 20 μL of NADPH regeneration system solution as a 0-min sample. 80 μL of NADPH regeneration system solution was added to each well of the incubation plate to start the reaction and start counting. […] Separately, 100 μL of the reaction solution was taken at 10, 30, and 90 min reaction, respectively, added to a stop plate, and vortexed for 3 minutes to terminate the reaction. The stop plate was centrifuged at 5000×g at 4° C. for 4 min. 100 μL of the supernatant was added to a 96-well plate to which 100 μL of distilled water was previously added, mixed, and analyzed by LC-MS/MS.
(§9) Data analysis: The peak areas of the corresponding compound and internal standard were detected by LC-MS/MS system, and the ratio of the peak area of the compound to the internal standard was calculated.

Data set [2] can be described thus: Metabolic stability in rat liver microsomes. Type of data set: in vitro ADME. The note with it: Sprague-Dawley (SD), pH 7.4, 1 μM compound, 0.5 mg/mL protein, 37° C.; for half-life at 1 μM: read-out: Rat liver microsomes t1/2. The method, then: as §1, §2, §3, §4, §5, §6, §7, §8, §9
On the technique in general: Microsomes from liver hold many membrane-bound enzymes, among them those of drug oxidation.

For `[2H]C([2H])(CNS(N)(=O)=O)Nc1nonc1/C(=N\c1ccc(F)c(Br)c1)NO` [Compound 11], the microsomal CLint at 1 μM was under 9.6 µL/min/mg in data set [1] and 18.9 µL/min/mg in data set [2]. Also, the half-life at 1 μM in data set [1] was over 2.5 h; in data set [2], 1.22 h.

As to `[2H]c1cc(F)c(Br)c([2H])c1/N=C(/NO)c1nonc1NCCNS(N)(=O)=O` [Compound 22], in data set [1], the microsomal CLint at 1 μM was under 9.6 µL/min/mg and the half-life at 1 μM is over 2.5 h. Also, in data set [2], the microsomal CLint at 1 μM was 19.6 µL/min/mg and the half-life at 1 μM worked out at 1.18 h.

Regarding `[2H]c1cc(/N=C(/NO)c2nonc2NCCNS(N)(=O)=O)cc(Br)c1F` [Compound 32, 4-({2-[(sulfamoyl)amino]ethyl}amino)-N-(3-bromo-4-fluoro-5-d-phenyl)-N′-hydroxy-1,2,5-oxadiazole-3-carboximidamide], in data set [1], the microsomal CLint at 1 μM is under 9.6 µL/min/mg and the half-life at 1 μM is over 2.5 h. Moreover, in data set [2], the microsomal CLint at 1 μM came out at 21.3 µL/min/mg and the half-life at 1 μM is 1.08 h.

As for `[2H]C([2H])(CNc1nonc1/C(=N\c1ccc(F)c(Br)c1)NO)NS(N)(=O)=O` [Compound 41, 4-({2-[(sulfamoyl)amino]-2,2-d2-ethyl}amino)-N-(3-bromo-4-fluorophenyl)-N′-hydroxy-1,2,5-oxadiazole-3-carboximidamide], in data set [1], the microsomal CLint at 1 μM was under 9.6 µL/min/mg and the half-life at 1 μM was over 2.5 h. Moreover, in data set [2], the microsomal CLint at 1 μM was determined as 21 µL/min/mg and the half-life at 1 μM turned out to be 1.1 h.

`[2H]C([2H])(Nc1nonc1/C(=N\c1ccc(F)c(Br)c1)NO)C([2H])([2H])NS(N)(=O)=O` [Compound 47, 4-({2-[(sulfamoyl)amino]-1,1,2,2-d4-ethyl}amino)-N-(3-bromo-4-fluorophenyl)-N′-hydroxy-1,2,5-oxadiazole-3-carboximidamide]: the figures for the microsomal CLint at 1 μM in data set [1] and in data set [2] were under 9.6 µL/min/mg and 18.7 µL/min/mg, respectively. The values for the half-life at 1 μM in data set [1] and in data set [2] were over 2.5 h and 1.23 h, respectively.

As for `[2H]c1cc(/N=C(/NO)c2nonc2NC([2H])([2H])C([2H])([2H])NS(N)(=O)=O)cc(Br)c1F` [Compound 52], the microsomal CLint at 1 μM in data set [1] was under 9.6 µL/min/mg; in data set [2], 19.2 µL/min/mg. Besides, the figures for the half-life at 1 μM in data set [1] and in data set [2] were over 2.5 h and 1.2 h, respectively.

Take `[2H]c1cc(F)c(Br)c([2H])c1/N=C(/NO)c1nonc1NC([2H])([2H])C([2H])([2H])NS(N)(=O)=O` [Compound 57, 4-({2-[(sulfamoyl)amino]-1,1,2,2-d4-ethyl}amino)-N-(2,6-d2-3-bromo-4-fluoro-phenyl)-N′-hydroxy-1,2,5-oxadiazole-3-carboximidamide]: in data set [1], the microsomal CLint at 1 μM was under 9.6 µL/min/mg and the half-life at 1 μM was over 2.5 h.

On to `[2H]c1c([2H])c(/N=C(/NO)c2nonc2NCCNS(N)(=O)=O)c([2H])c(Br)c1F` [Compound 66], for which, in data set [1], the microsomal CLint at 1 μM was under 9.6 µL/min/mg and the half-life at 1 μM was over 2.5 h. Besides, in data set [2], the microsomal CLint at 1 μM came to 17.5 µL/min/mg and the half-life at 1 μM is 1.32 h.

For `[2H]c1c([2H])c(/N=C(/NO)c2nonc2NC([2H])([2H])C([2H])([2H])NS(N)(=O)=O)c([2H])c(Br)c1F` [Compound 71, 4-({2-[(sulfamoyl)amino]-1,1,2,2-d4-ethyl}amino)-N-(2,5,6-d3-3-bromo-4-fluoro-phenyl)-N′-hydroxy-1,2,5-oxadiazole-3-carboximidamide], in data set [1], the microsomal CLint at 1 μM was under 9.6 µL/min/mg and the half-life at 1 μM was over 2.5 h. In addition, in data set [2], the microsomal CLint at 1 μM worked out at 20.5 µL/min/mg and the half-life at 1 μM was found to be 1.13 h.

As for `[2H]c1c([2H])c(/N=C(/NO)c2nonc2NCC([2H])([2H])NS(N)(=O)=O)c([2H])c(Br)c1F` [Compound 76, 4-({2-[(sulfamoyl)amino]-1,1-d2-ethyl}amino)-N-(2,5,6-d3-3-bromo-4-fluoro-phenyl)-N′-hydroxy-1,2,5-oxadiazole-3-carboximidamide], in data set [1], the microsomal CLint at 1 μM is under 9.6 µL/min/mg and the half-life at 1 μM is over 2.5 h. Also, in data set [2], the microsomal CLint at 1 μM was 22.6 µL/min/mg and the half-life at 1 μM is 1.02 h.

In the case of `[2H]c1cc(F)c(Br)c([2H])c1/N=C(/NO)c1nonc1NC([2H])([2H])CNS(N)(=O)=O` [Compound 81, 4-({2-[(sulfamoyl)amino]-1,1-d2-ethyl}amino)-N-(2,6-d2-3-bromo-4-fluoro-phenyl)-N′-hydroxy-1,2,5-oxadiazole-3-carboximidamide], in data set [1], the microsomal CLint at 1 μM is under 9.6 µL/min/mg and the half-life at 1 μM is over 2.5 h. Also, in data set [2], the microsomal CLint at 1 μM worked out at 18.5 µL/min/mg and the half-life at 1 μM was 1.25 h.

In the case of `NS(=O)(=O)NCCNc1nonc1C(=NO)Nc1ccc(F)c(Br)c1` [Epacadostat, reference compound], in data set [1], the microsomal CLint at 1 μM came to 9.6 µL/min/mg and the half-life at 1 μM amounted to 2.4 h. In data set [2], the microsomal CLint at 1 μM amounted to 20.1 µL/min/mg and the half-life at 1 μM was found to be 1.15 h.

For orientation: microsomal CLint means a measure of how fast metabolising enzymes remove a compound, apart from limits set by blood flow.
